Source: ChEMBL document CHEMBL1201862, “PubChem BioAssay data set” (2004)
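1) Cells in 96-well plates. 2) Compound, 48 h, 5 concentrations. 3) Linear interpolation between surrounding doses. 4) Unreached endpoint = highest concentration. GI50 = concentration required for 50% inhibition of growth.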 Active and inactive are the calls of the source. Cut-off read from the data, not from the text of the source: active = GI50 up to about 1.1 µM and inactive = higher.

Experiments:
Test in all cases: NCI anticancer screen, dose series, 48 h
NCI-H522 = system: NCI-H522
HCC 2998 = system: HCC 2998
OVCAR-4 = system: OVCAR-4
HOP-62 = system: HOP-62
IGROV-1 = system: IGROV-1
SF-295 = system: SF-295
CCRF-CEM = system: CCRF-CEM
MDA-MB-231 = system: MDA-MB-231
OVCAR-3 = system: OVCAR-3
UO-31 = system: UO-31
HOP-18 = system: HOP-18
DU-145 = system: DU-145
OVCAR-8 = system: OVCAR-8
SK-OV-3 = system: SK-OV-3
HCT-116 = system: HCT-116
NCI-H460 = system: NCI-H460
HT-29 = system: HT-29
NCI-H23 = system: NCI-H23
LXFL 529 = system: LXFL 529
MCF7 = system: MCF7
SNB-78 = system: SNB-78
UACC-62 = system: UACC-62
UACC-257 = system: UACC-257
SF-268 = system: SF-268
BT-549 = system: BT-549
786-0 = system: 786-0
A549 = system: A549
SW-620 = system: SW-620
KM12 = system: KM12
SR = system: SR
MDA-N = system: MDA-N
SN12C = system: SN12C
RXF 631 = system: RXF 631
SNB-75 = system: SNB-75
OVCAR-5 = system: OVCAR-5
DMS-273 = system: DMS-273
SNB-19 = system: SNB-19
HOP-92 = system: HOP-92
KM-20L2 = system: KM-20L2
COLO 205 = system: COLO 205
K562 = system: K562
TK-10 = system: TK-10
NCI-H226 = system: NCI-H226
HL-60 = system: HL-60
DMS-114 = system: DMS-114
MOLT-4 = system: MOLT-4
LOX IMVI = system: LOX IMVI
SF-539 = system: SF-539
CAKI-1 = system: CAKI-1
M14 = system: M14
A498 = system: A498
HCT-15 = system: HCT-15
SK-MEL-28 = system: SK-MEL-28
ACHN = system: ACHN
M19-MEL = system: M19-MEL
SK-MEL-5 = system: SK-MEL-5
MDA-MB-435 = system: MDA-MB-435
Malme-3M = system: Malme-3M
PC-3 = system: PC-3
T47D = system: T47D
Hs-578T = system: Hs-578T
EKVX = system: EKVX
XF498 = system: XF498
SK-MEL-2 = system: SK-MEL-2
U-251 = system: U-251
DLD-1 = system: DLD-1
RPMI-8226 = system: RPMI-8226

For `O=C1c2c(O)cccc2C(C(=O)CCCC(=O)C2c3cccc(O)c3C(=O)c3c(O)cccc32)c2cccc(O)c21`, the GI50 (NCI-H522) was 0.158 µM (active), the GI50 (HCC 2998) was 0.278 µM (active) and the GI50 (OVCAR-4) was 0.0867 µM (active). For the same compound, the GI50 (HOP-62) was 0.612 µM (active), the GI50 (IGROV-1) was 0.415 µM (active) and the GI50 (SF-295) was 0.243 µM (active). For the same compound, the GI50 (CCRF-CEM) was 0.202 µM (active), the GI50 (MDA-MB-231) was 0.0822 µM (active) and the GI50 (OVCAR-3) was 0.158 µM (active). The GI50 (UO-31) was 0.417 µM (active), the GI50 (HOP-18) was 0.378 µM (active) and the GI50 (DU-145) was 0.519 µM (active). For the same compound, the GI50 (OVCAR-8) was 0.492 µM (active), the GI50 (SK-OV-3) was 0.353 µM (active) and the GI50 (HCT-116) was 0.22 µM (active). For the same compound, the GI50 (NCI-H460) was 0.0803 µM (active), the GI50 (HT-29) was 0.746 µM (active) and the GI50 (NCI-H23) was 0.27 µM (active). The GI50 (LXFL 529) was 0.139 µM (active), the GI50 (MCF7) was 0.598 µM (active) and the GI50 (SNB-78) was 0.213 µM (active). The GI50 (UACC-62) was 0.327 µM (active), the GI50 (UACC-257) was 0.191 µM (active) and the GI50 (SF-268) was 0.248 µM (active). The GI50 (BT-549) was 0.524 µM (active), the GI50 (786-0) was 2.73 µM (inactive) and the GI50 (A549) was 0.393 µM (active). For the same compound, the GI50 (SW-620) was 0.244 µM (active), the GI50 (KM12) was 0.242 µM (active) and the GI50 (SR) was 0.321 µM (active). The GI50 (MDA-N) was 0.442 µM (active), the GI50 (SN12C) was 0.643 µM (active) and the GI50 (RXF 631) was 0.578 µM (active). The GI50 (SNB-75) was 0.448 µM (active), the GI50 (OVCAR-5) was 0.469 µM (active) and the GI50 (DMS-273) was 0.437 µM (active). The GI50 (SNB-19) was 0.29 µM (active), the GI50 (HOP-92) was 0.217 µM (active) and the GI50 (KM-20L2) was 1.19 µM (inactive). The GI50 (COLO 205) was 0.34 µM (active), the GI50 (K562) was 0.11 µM (active) and the GI50 (TK-10) was 0.547 µM (active). The GI50 (NCI-H226) was 0.456 µM (active), the GI50 (HL-60) was 0.0824 µM (active) and the GI50 (DMS-114) was 0.116 µM (active). The GI50 (MOLT-4) was 0.966 µM (active), the GI50 (LOX IMVI) was 0.194 µM (active) and the GI50 (SF-539) was 0.179 µM (active). For the same compound, the GI50 (CAKI-1) was 1.27 µM (inactive), the GI50 (M14) was 0.368 µM (active) and the GI50 (A498) was 0.957 µM (active). For the same compound, the GI50 (HCT-15) was 0.259 µM, the GI50 (SK-MEL-28) was 0.538 µM (active) and the GI50 (ACHN) was 0.378 µM (active). For the same compound, the GI50 (M19-MEL) was 0.151 µM (active), the GI50 (SK-MEL-5) was 0.259 µM (active) and the GI50 (MDA-MB-435) was 0.746 µM (active). The GI50 (Malme-3M) was 0.789 µM (active), the GI50 (PC-3) was 0.0787 µM (active) and the GI50 (T47D) was 0.279 µM (active). The GI50 (Hs-578T) was 0.0665 µM (active), the GI50 (EKVX) was 0.608 µM (active) and the GI50 (XF498) was 0.0752 µM (active). The GI50 (SK-MEL-2) was 0.322 µM (active), the GI50 (U-251) was 0.212 µM (active) and the GI50 (DLD-1) was 0.388 µM (active). For the same compound, the GI50 (RPMI-8226) was 0.0679 µM (active).
